Source: PubChem BioAssay AID180 (DTP/NCI, 2004)
Where “and” joins values, the source holds several entries; their conditions need not be identical. Identical values can stand only once.

Test system: BDF1 mice, Adenocarcinoma 755 s.c., tumor weight T/C
Test: NCI In Vivo Anticancer Drug Screen. Data for tumor model Adenocarcinoma 755 (subcutaneous) in B6D2F1 (BDF1) mice
Conditions: endpoint: mean tumor weight, schedule: Q01DX011 (ip), higher = larger tumour
How it was run: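 In vivo antitumor screen on a transplantable tumor line. Result equals the measure in compound-treated animals divided by the same measure in vehicle controls.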

[1] = dose: 50.0 mg/kg/injection, vehicle: carboxymethylcellulose (CMC)
[2] = dose: 31.0 mg/kg/injection, vehicle: methylcellulose (MC)
[3] = dose: 31.25 mg/kg/injection, vehicle: methylcellulose (MC)

## O=NN1CCN(N=O)CC1
dose: 6.21 mg/kg/injection, vehicle: carboxymethylcellulose (CMC)
  T/C: 76 % of control
dose: 7.36 mg/kg/injection, vehicle: carboxymethylcellulose (CMC)
  T/C: 69 % of control
dose: 11.75 mg/kg/injection, vehicle: carboxymethylcellulose (CMC)
  T/C: 98 % of control and 78 % of control
dose: 12.43 mg/kg/injection, vehicle: carboxymethylcellulose (CMC)
  T/C: 85 % of control
dose: 14.72 mg/kg/injection, vehicle: carboxymethylcellulose (CMC)
  T/C: 101 % of control
dose: 18.8 mg/kg/injection, vehicle: carboxymethylcellulose (CMC)
  T/C: 157 % of control
dose: 23.5 mg/kg/injection, vehicle: carboxymethylcellulose (CMC)
  T/C: 69 % of control and 83 % of control
dose: 23.56 mg/kg/injection, vehicle: carboxymethylcellulose (CMC)
  T/C: 88 % of control
dose: 24.85 mg/kg/injection, vehicle: carboxymethylcellulose (CMC)
  T/C: 56 % of control
dose: 29.45 mg/kg/injection, vehicle: carboxymethylcellulose (CMC)
  T/C: 99 % of control and 100 % of control
dose: 31.33 mg/kg/injection, vehicle: carboxymethylcellulose (CMC)
  T/C: 57 % of control
dose: 39.26 mg/kg/injection, vehicle: carboxymethylcellulose (CMC)
  T/C: 67 % of control
dose: 40.0 mg/kg/injection, vehicle: carboxymethylcellulose (CMC)
  T/C: 99 % of control
dose: 45.0 mg/kg/injection, vehicle: carboxymethylcellulose (CMC)
  T/C: 100 % of control
[1]
  T/C: 86 % of control
dose: 55.0 mg/kg/injection, vehicle: carboxymethylcellulose (CMC)
  T/C: 102 % of control

## CCOc1nc(N)nc2nc[nH]c12
dose: 8.0 mg/kg/injection, vehicle: methylcellulose (MC)
  T/C: 88 % of control
dose: 16.0 mg/kg/injection, vehicle: methylcellulose (MC)
  T/C: 55 % of control
[2]
  T/C: 59 % of control

## CCCCSc1ncnc2c1ncn2C1CCCCO1 (stereo not drawn)
dose: 9.2 mg/kg/injection, vehicle: carboxymethylcellulose (CMC)
  T/C: 78 % of control
dose: 14.0 mg/kg/injection, vehicle: carboxymethylcellulose (CMC)
  T/C: 58 % of control
dose: 21.0 mg/kg/injection, vehicle: carboxymethylcellulose (CMC)
  T/C: 35 % of control
dose: 31.0 mg/kg/injection, vehicle: carboxymethylcellulose (CMC)
  T/C: 17 % of control
dose: 47.0 mg/kg/injection, vehicle: carboxymethylcellulose (CMC)
  T/C: 21 % of control
dose: 63.0 mg/kg/injection, vehicle: carboxymethylcellulose (CMC)
  T/C: 11 % of control
dose: 94.0 mg/kg/injection, vehicle: carboxymethylcellulose (CMC)
  T/C: 8 % of control
dose: 125.0 mg/kg/injection, vehicle: carboxymethylcellulose (CMC)
  T/C: 9 % of control
dose: 175.0 mg/kg/injection, vehicle: carboxymethylcellulose (CMC)
  T/C: 12 % of control
dose: 188.0 mg/kg/injection, vehicle: carboxymethylcellulose (CMC)
  T/C: 2 % of control
dose: 262.5 mg/kg/injection, vehicle: carboxymethylcellulose (CMC)
  T/C: 14 % of control

## COc1ccc(/C=N/Nc2nc3c([nH]2)c(=O)n(C)c(=O)n3C)cc1
dose: 30.0 mg/kg/injection, vehicle: carboxymethylcellulose (CMC)
  T/C: 108 % of control
dose: 60.0 mg/kg/injection, vehicle: carboxymethylcellulose (CMC)
  T/C: 94 % of control
dose: 480.0 mg/kg/injection, vehicle: carboxymethylcellulose (CMC)
  T/C: 64 % of control

## Cc1nc(C(N)=O)nc2ccccc12
[3]
  T/C: 102 % of control
[1]
  T/C: 99 % of control
dose: 100.0 mg/kg/injection, vehicle: carboxymethylcellulose (CMC)
  T/C: 80 % of control
dose: 200.0 mg/kg/injection, vehicle: carboxymethylcellulose (CMC)
  T/C: 58 % of control
dose: 400.0 mg/kg/injection, vehicle: carboxymethylcellulose (CMC)
  T/C: 32 % of control

## CC(=O)c1cc(C)[nH]c1C
dose: 29.0 mg/kg/injection, vehicle: carboxymethylcellulose (CMC)
  T/C: 58 % of control
dose: 57.5 mg/kg/injection, vehicle: carboxymethylcellulose (CMC)
  T/C: 99 % of control
dose: 115.0 mg/kg/injection, vehicle: carboxymethylcellulose (CMC)
  T/C: 29 % of control
dose: 115.0 mg/kg/injection, vehicle: methylcellulose (MC)
  T/C: 96 % of control and 77 % of control

## NC(N)=Nc1nc2ccccc2s1
dose: 6.25 mg/kg/injection, vehicle: carboxymethylcellulose (CMC)
  T/C: 108 % of control
dose: 6.25 mg/kg/injection, vehicle: other
  T/C: 84 % of control
dose: 6.25 mg/kg/injection, vehicle: water
  T/C: 105 % of control
dose: 12.5 mg/kg/injection, vehicle: carboxymethylcellulose (CMC)
  T/C: 53 % of control
dose: 25.0 mg/kg/injection, vehicle: other
  T/C: 90 % of control
dose: 25.0 mg/kg/injection, vehicle: water
  T/C: 84 % of control
dose: 50.0 mg/kg/injection, vehicle: water
  T/C: 48 % of control

## Clc1cccc(CSc2ncnc3nc[nH]c23)c1
dose: 3.9 mg/kg/injection, vehicle: methylcellulose (MC)
  T/C: 56 % of control
dose: 7.8 mg/kg/injection, vehicle: methylcellulose (MC)
  T/C: 57 % of control
dose: 15.6 mg/kg/injection, vehicle: methylcellulose (MC)
  T/C: 20 % of control
[3]
  T/C: 3 % of control and 7 % of control
dose: 62.5 mg/kg/injection, vehicle: methylcellulose (MC)
  T/C: 5 % of control

## COc1cc(C(=O)O)nc(N)n1
dose: 15.0 mg/kg/injection, vehicle: saline
  T/C: 111 % of control
dose: 125.0 mg/kg/injection, vehicle: saline
  T/C: 100 % of control
dose: 250.0 mg/kg/injection, vehicle: saline
  T/C: 161 % of control

## CCc1c(Cl)nc(N)nc1Nc1ccccc1Br
dose: 15.0 mg/kg/injection, vehicle: methylcellulose (MC)
  T/C: 96 % of control
[2]
  T/C: 101 % of control
dose: 62.0 mg/kg/injection, vehicle: methylcellulose (MC)
  T/C: 76 % of control
dose: 250.0 mg/kg/injection, vehicle: methylcellulose (MC)
  T/C: 75 % of control

## COc1ccc(-c2c(C)c(C(=O)O)nc(-c3ccc(C(=O)O)c(C(=O)O)n3)c2N)c(O)c1OC
dose: 100.0 mg/kg/injection, vehicle: water
  T/C: 58 % of control
dose: 200.0 mg/kg/injection, vehicle: water
  T/C: 83 % of control
